Measurements: ChEMBL document CHEMBL5608163, “Structure modification of anoplin for fighting resistant bacteria” (Eur J Med Chem, 2024)
In brackets after ≈: the same amount, converted by molar mass. Square brackets hold non-standard residues; d marks the D form. Peptide text beside a SMILES is read from it. * marks the point of attachment. Pentadecanoyl = CCCCCCCCCCCCCCC(=O)*; NMeI = CC[C@H](C)[C@H](NC)C(=O)O; Tridecanoyl = CCCCCCCCCCCCC(=O)*; NMeL = CN[C@@H](CC(C)C)C(=O)O; Undecanoyl = CCCCCCCCCCC(=O)*; Nonanoyl = CCCCCCCCC(=O)*

How the values were obtained:
Staphylococcus aureus [1] = assay: Antibacterial activity against Staphylococcus aureus ATCC 25923 assessed as reduction in bacterial growth incubated for 18 to 24 hrs by broth microdilution method; format: functional; conditions: time 18-24 hrs
Escherichia coli [2] = assay: Antibacterial activity against Escherichia coli ATCC 25922 assessed as reduction in bacterial growth by broth microdilution method; format: functional
[3] = Hemolytic activity in human RBC; format: toxicity, cell-based, Erythrocyte; conditions: red blood cells
[4] = Hemolytic activity in mouse Red blood cells incubated for 1 hr by microplate reader assay; format: toxicity, cell-based, Erythrocyte; conditions: red blood cells
Staphylococcus aureus [5] = assay: Antibacterial activity against Staphylococcus aureus ATCC 25923 assessed as reduction in bacterial cell growth measured for 18 hrs by Mueller-Hinton broth based two-fold serial dilution method; format: functional
Bacillus subtilis = assay: Antibacterial activity against Bacillus subtilis ATCC 23857 assessed as reduction in bacterial cell growth measured for 18 hrs by Mueller-Hinton broth based two-fold serial dilution method; format: functional
Escherichia coli [6] = assay: Antibacterial activity against Escherichia coli ATCC 25922 assessed as reduction in bacterial cell growth measured for 18 hrs by Mueller-Hinton broth based two-fold serial dilution method; format: functional
Pseudomonas aeruginosa = assay: Antibacterial activity against Pseudomonas aeruginosa ATCC 27853 assessed as reduction in bacterial cell growth measured for 18 hrs by Mueller-Hinton broth based two-fold serial dilution method; format: functional
Klebsiella pneumoniae = assay: Antibacterial activity against Klebsiella pneumoniae ATCC 700603 assessed as reduction in bacterial cell growth measured for 18 hrs by Mueller-Hinton broth based two-fold serial dilution method; format: functional

CC[C@H](C)[C@H](NC(=O)[C@H](CCCNC(=N)N)NC(=O)[C@H](CCCCN)NC(=O)[C@H](C)NC(=O)[C@H](CC(C)C)NC(=O)CN)C(=O)N[C@@H](CCCCN)C(=O)N[C@H](C(=O)N[C@@H](CC(C)C)C(=O)N[C@@H](CC(C)C)C(N)=O)[C@@H](C)O (H-GLAKRIKTLL-NH2)
MIC (Staphylococcus aureus [1]): > 34.2 µM | MIC (Escherichia coli [2]): > 34.2 µM

CC[C@H](C)[C@H](NC(=O)[C@H](CCCNC(=N)N)NC(=O)[C@H](C)NC(=O)[C@H](CC(C)C)NC(=O)[C@H](CC(C)C)NC(=O)CN)C(=O)N[C@@H](CCCCN)C(=O)N[C@H](C(=O)N[C@@H](CC(C)C)C(=O)N[C@@H](CC(C)C)C(N)=O)[C@@H](C)O (H-GLLARIKTLL-NH2)
MIC (Staphylococcus aureus [1]): 25.6 µM (≈ 28.1 µg/mL) | MIC (Escherichia coli [2]): 14.6 µM (≈ 16 µg/mL)

CC[C@H](C)[C@H](NC(=O)[C@H](C)NC(=O)[C@H](CCCCN)NC(=O)[C@H](CC(C)C)NC(=O)[C@H](CC(C)C)NC(=O)CN)C(=O)N[C@@H](CCCCN)C(=O)N[C@H](C(=O)N[C@@H](CC(C)C)C(=O)N[C@@H](CC(C)C)C(N)=O)[C@@H](C)O (H-GLLKAIKTLL-NH2)
MIC (Staphylococcus aureus [1]): 9.4 µM (≈ 10 µg/mL) | MIC (Escherichia coli [2]): 4.7 µM (≈ 5.02 µg/mL) | HC50 [3]: 151 µM

CC(C)C[C@H](NC(=O)[C@H](CC(C)C)NC(=O)[C@@H](NC(=O)[C@H](CCCCN)NC(=O)[C@H](C)NC(=O)[C@H](CCCNC(=N)N)NC(=O)[C@H](CCCCN)NC(=O)[C@H](CC(C)C)NC(=O)[C@H](CC(C)C)NC(=O)CN)[C@@H](C)O)C(N)=O (H-GLLKRAKTLL-NH2)
MIC (Staphylococcus aureus [1]): > 36.9 µM | MIC (Escherichia coli [2]): > 36.9 µM

CC[C@H](C)[C@H](NC(=O)[C@H](CCCNC(=N)N)NC(=O)[C@H](CCCCN)NC(=O)[C@H](CC(C)C)NC(=O)[C@H](CC(C)C)NC(=O)CN)C(=O)N[C@@H](C)C(=O)N[C@H](C(=O)N[C@@H](CC(C)C)C(=O)N[C@@H](CC(C)C)C(N)=O)[C@@H](C)O (H-GLLKRIATLL-NH2)
MIC (Staphylococcus aureus [1]): 10.1 µM (≈ 11.1 µg/mL) | MIC (Escherichia coli [2]): 10.1 µM (≈ 11.1 µg/mL) | HC50 [3]: 121 µM

CC[C@H](C)[C@H](NC(=O)[C@H](CCCNC(=N)N)NC(=O)[C@H](CCCCN)NC(=O)[C@H](CC(C)C)NC(=O)[C@H](CC(C)C)NC(=O)CN)C(=O)N[C@@H](CCCCN)C(=O)N[C@@H](C)C(=O)N[C@@H](CC(C)C)C(=O)N[C@@H](CC(C)C)C(N)=O (H-GLLKRIKALL-NH2)
MIC (Staphylococcus aureus [1]): 7.1 µM (≈ 7.98 µg/mL) | MIC (Escherichia coli [2]): 14.3 µM (≈ 16.1 µg/mL) | HC50 [3]: 86.5 µM

CC[C@H](C)[C@H](NC(=O)[C@H](CCCNC(=N)N)NC(=O)[C@H](CCCCN)NC(=O)[C@H](CC(C)C)NC(=O)[C@H](CC(C)C)NC(=O)CN)C(=O)N[C@@H](CCCCN)C(=O)N[C@H](C(=O)N[C@@H](C)C(=O)N[C@@H](CC(C)C)C(N)=O)[C@@H](C)O (H-GLLKRIKTAL-NH2)
MIC (Staphylococcus aureus [1]): 27.9 µM (≈ 31 µg/mL) | MIC (Escherichia coli [2]): 44.1 µM (≈ 49 µg/mL)

CCCCCCCCC(=O)NCC(=O)N[C@@H](CC(C)C)C(=O)N(C)[C@@H](CC(C)C)C(=O)N[C@@H](CCCCN)C(=O)N[C@@H](CCCNC(=N)N)C(=O)N(C)[C@H](C(=O)N[C@@H](CCCCN)C(=O)N[C@H](C(=O)N[C@@H](CC(C)C)C(=O)N[C@@H](CC(C)C)C(N)=O)[C@@H](C)O)[C@@H](C)CC (Nonanoyl-GL[NMeL]KR[NMeI]KTLL-NH2)
HC50 at 1 h [4]: > 256 µM | MIC (Staphylococcus aureus [5]): 128 µM (≈ 169 µg/mL) | MIC (Bacillus subtilis): 8 µM (≈ 10.6 µg/mL) | MIC (Escherichia coli [6]): 128 µM (≈ 169 µg/mL) | MIC (Pseudomonas aeruginosa): 32 µM (≈ 42.3 µg/mL) | MIC (Klebsiella pneumoniae): > 128 µM

CCCCCCCCCCCCCCC(=O)NCC(=O)N[C@@H](CC(C)C)C(=O)N(C)[C@@H](CC(C)C)C(=O)N[C@@H](CCCCN)C(=O)N[C@@H](CCCNC(=N)N)C(=O)N(C)[C@H](C(=O)N[C@@H](CCCCN)C(=O)N[C@H](C(=O)N[C@@H](CC(C)C)C(=O)N[C@@H](CC(C)C)C(N)=O)[C@@H](C)O)[C@@H](C)CC (Pentadecanoyl-GL[NMeL]KR[NMeI]KTLL-NH2)
HC50 at 1 h [4]: 64 µM | MIC (Staphylococcus aureus [5]): 8 µM (≈ 11.2 µg/mL) | MIC (Bacillus subtilis): 4 µM (≈ 5.62 µg/mL) | MIC (Escherichia coli [6]): 16 µM (≈ 22.5 µg/mL) | MIC (Pseudomonas aeruginosa): 16 µM (≈ 22.5 µg/mL) | MIC (Klebsiella pneumoniae): 16 µM (≈ 22.5 µg/mL)

CCCCCCCCCCCCC(=O)NCC(=O)N[C@@H](CC(C)C)C(=O)N(C)[C@@H](CC(C)C)C(=O)N[C@@H](CCCCN)C(=O)N[C@@H](CCCNC(=N)N)C(=O)N(C)[C@H](C(=O)N[C@@H](CCCCN)C(=O)N[C@H](C(=O)N[C@@H](CC(C)C)C(=O)N[C@@H](CC(C)C)C(N)=O)[C@@H](C)O)[C@@H](C)CC (Tridecanoyl-GL[NMeL]KR[NMeI]KTLL-NH2)
HC50 at 1 h [4]: 64 µM | MIC (Staphylococcus aureus [5]): 4 µM (≈ 5.51 µg/mL) | MIC (Bacillus subtilis): 4 µM (≈ 5.51 µg/mL) | MIC (Escherichia coli [6]): 8 µM (≈ 11 µg/mL) | MIC (Pseudomonas aeruginosa): 8 µM (≈ 11 µg/mL) | MIC (Klebsiella pneumoniae): 32 µM (≈ 44.1 µg/mL)

CCCCCCCCCCC(=O)NCC(=O)N[C@@H](CC(C)C)C(=O)N(C)[C@@H](CC(C)C)C(=O)N[C@@H](CCCCN)C(=O)N[C@@H](CCCNC(=N)N)C(=O)N(C)[C@H](C(=O)N[C@@H](CCCCN)C(=O)N[C@H](C(=O)N[C@@H](CC(C)C)C(=O)N[C@@H](CC(C)C)C(N)=O)[C@@H](C)O)[C@@H](C)CC (Undecanoyl-GL[NMeL]KR[NMeI]KTLL-NH2)
HC50 at 1 h [4]: > 256 µM | MIC (Staphylococcus aureus [5]): 16 µM (≈ 21.6 µg/mL) | MIC (Bacillus subtilis): 4 µM (≈ 5.4 µg/mL) | MIC (Escherichia coli [6]): 16 µM (≈ 21.6 µg/mL) | MIC (Pseudomonas aeruginosa): 8 µM (≈ 10.8 µg/mL) | MIC (Klebsiella pneumoniae): 64 µM (≈ 86.4 µg/mL)
